Measurements from patent US10464902B1, “Multi-tyrosine kinase inhibitors derivatives and methods of use” (Ontogenesis, LLC, priority 2015, dated 2019).
Where two headings read alike, the source gives them in different places. Each block holds one compound with its values, some of them ahead of it.

Experiments:
[1] = Residence in the vitreous humor; format: in vivo; conditions: estimated for its molecular weight
VEGFR2 [2] = biological target: T1, VEGFR2 (Homo sapiens (Human), UniProt P35968); conditions: human umbilical vein endothelial cells; cited from earlier work
Target sequence in this assay (P35968 20-1356): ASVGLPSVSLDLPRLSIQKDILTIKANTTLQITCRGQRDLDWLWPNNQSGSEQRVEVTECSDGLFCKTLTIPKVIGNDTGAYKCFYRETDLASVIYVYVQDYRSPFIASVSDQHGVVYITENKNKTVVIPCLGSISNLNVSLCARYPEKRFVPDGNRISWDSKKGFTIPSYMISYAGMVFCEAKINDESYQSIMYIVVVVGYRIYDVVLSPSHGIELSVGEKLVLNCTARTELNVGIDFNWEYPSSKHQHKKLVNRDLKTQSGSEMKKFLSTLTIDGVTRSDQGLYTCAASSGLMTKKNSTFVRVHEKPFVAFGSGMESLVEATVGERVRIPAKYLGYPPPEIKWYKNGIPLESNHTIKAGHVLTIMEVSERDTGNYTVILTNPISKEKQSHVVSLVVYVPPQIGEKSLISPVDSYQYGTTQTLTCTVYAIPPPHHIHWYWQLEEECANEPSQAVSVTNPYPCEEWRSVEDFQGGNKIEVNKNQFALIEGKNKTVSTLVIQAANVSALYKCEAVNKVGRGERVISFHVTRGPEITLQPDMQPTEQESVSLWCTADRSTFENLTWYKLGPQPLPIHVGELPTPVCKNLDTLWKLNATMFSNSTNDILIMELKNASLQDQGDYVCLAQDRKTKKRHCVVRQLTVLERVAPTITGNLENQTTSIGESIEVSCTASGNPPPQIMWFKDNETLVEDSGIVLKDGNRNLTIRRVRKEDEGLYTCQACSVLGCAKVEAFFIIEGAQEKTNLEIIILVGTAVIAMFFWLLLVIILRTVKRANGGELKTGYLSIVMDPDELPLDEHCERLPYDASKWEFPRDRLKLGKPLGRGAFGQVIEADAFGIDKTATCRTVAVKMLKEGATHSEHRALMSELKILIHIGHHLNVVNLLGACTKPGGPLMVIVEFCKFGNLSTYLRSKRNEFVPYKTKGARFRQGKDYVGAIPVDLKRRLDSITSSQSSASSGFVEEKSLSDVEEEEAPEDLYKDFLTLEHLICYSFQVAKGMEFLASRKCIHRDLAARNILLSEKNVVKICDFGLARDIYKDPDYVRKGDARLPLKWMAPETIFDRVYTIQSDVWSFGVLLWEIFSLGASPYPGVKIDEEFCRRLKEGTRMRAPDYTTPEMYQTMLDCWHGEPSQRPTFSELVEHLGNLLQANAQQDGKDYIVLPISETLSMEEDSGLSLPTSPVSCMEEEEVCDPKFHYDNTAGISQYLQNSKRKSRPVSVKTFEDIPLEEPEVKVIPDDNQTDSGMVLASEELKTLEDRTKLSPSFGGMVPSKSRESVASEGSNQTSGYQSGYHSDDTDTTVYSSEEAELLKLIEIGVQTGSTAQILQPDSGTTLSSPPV

VEGFR [3] = conditions: read-out: IC50 (concentration required for efficacy); cited from earlier work
VEGFR2 [4] = biological target: T1, VEGFR2; conditions: HUVEC, in vitro angiogenic assays; read-out: IC50 VEGFR2 inhibition; cited from earlier work
[5] = test system: subretinal choroidal neovascularization (CNV); assay: Subretinal choroidal neovascularization model after intravitreal injection (virtual example); format: in vivo, mammal (preferably a pigmented rabbit or a primate); conditions: intravitreal 50 uL, 10-20 mg/mL
Experimental: The first solution was then added to a saturated fatty acid (e.g. octanoic acid) combined with lecithin or lecithin derivatives (e.g. phosphatidyl choline), a glycerol fatty acid ester (e.g. propylene glycol fatty acid esters such as polyoxyethyleneglycerol triricinoleate), a sorbitan fatty acid ester (e.g. Span® 20, Span® 80) or a olyoxylethylene sorbitan fatty acid ester (e.g. Tween® 20, Tween® 80), and optionally a co-surfactant (e.g. propylene glycol, glycerol, PEG 400, 1,2-propanediol), which were then solubilized as a microemulsion using commercial lipoemulsion techniques (e.g. Intralipid®, Abbolipid). […] 50 uL of either Lucentis® or Eylea® was administered into the remaining eye of the mammal. 2 weeks after administration a subretinal choroidal neovascularization (CNV) was caused in the eyes of the mammal using techniques explained in Qui G et al., A new model of experimental subretinal neovascularization in the rabbit, Exp Eye Res, 2006 July, 83(1), 141-152. 6 weeks after subretinal CNV eyes of the mammal were sacrificed for examination.

[6] = test system: intraocular proliferative retinopathy; assay: Virtual discovery: intravitreal injection, intraocular proliferative retinopathy; format: in vivo
From the text: With the onset of proliferative retinopathy however conventional anti-VEGF therapy causes increased fibrosis. Van Geest R. J. et al., A shift in the balance of vascular endothelial growth factor and connective tissue growth factor by bevacizumab causes the angiofibrotic switch in proliferative diabetic retinopathy Br J Ophthalmol, 2012 April, 96(4), 587-90. […]. The suppression of intraocular proliferative retinopathy in turn suppresses fibrotic induction and the most severe manifestations of proliferative eye disease. This suppression also is virtually discovered to occur when the methyl of the preferred embodiments is replaced by any alkyl group. […]. As diabetic macular edema is amenable to anti-VEGF therapy, its use in patients with preproliferative severe peripheral ischemic disease, and or patients with early proliferative disease may enhance the onset of fibrovascular proliferative morbidity, whereas the present invention using MTKIs combining VEGF suppression with c-MET suppression may both reduce diabetic macular edema and suppress diabetic fibrovascular proliferation.

VEGFR [7] = assay: Virtual discovery: suppression of VEGFR; conditions: virtually discovered

- intravitreal clearance [1]: within hours
Compound: Cc1ccc(Nc2nccc(N(C)c3ccc4c(C)n(C)nc4c3)n2)cc1S(N)(=O)=O [pazopantinib, Pazopantinib]

Compound: Cn1cnc(-c2cc3nccc(Oc4ccc(NC(=S)NC(=O)Cc5ccccc5)cc4F)c3s2)c1 [MGCD-265]
- IC50 (VEGFR2 [2]): 3 nM

Compound: ranibizumab [Lucentis]
- IC50 (VEGFR [3]): ~19 nM

Compound: bevacizumab [Avastin]
- IC50 (VEGFR2 [4]): ~1.4 nM

Compound: CCCCCCCCCCCCCCCC(=O)OC[n+]1ccc(Oc2ccc(NC(=O)C3(C(=O)Nc4ccc(F)cc4)CC3)cc2)c2cc(OC)c(OC)cc21 [Cabozantinib N-acyl methyl palmitate]
- suppression of macular edema [5]: long-lasting suppression of macular edema
- suppression of fibrovascular proliferation ([5]; vs Lucentis or Eylea in the other eye, CNV 2 weeks after dosing, examined 6 weeks later): Greater suppression of fibrovascular proliferation
- suppression of intraocular proliferative retinopathy [6]: suppress intraocular proliferative retinopathy
- suppression of VEGFR (VEGFR [7]): suppress

Compound: foretinib N-acyl methyl palmitate
- suppression of intraocular proliferative retinopathy [6]: suppress intraocular proliferative retinopathy
